Data on 18 compounds can be found in ChEMBL document CHEMBL5365485 (J Med Chem, 2023).

The target of experiment [1] is T1, Von Hippel-Lindau disease tumor suppressor/Elongin B/Elongin C (Homo sapiens, UniProt P40337). As to the kind of experiment: Binding affinity to VHL (54 to 213 residues)/N-terminal Avi-tagged biotinylated-Elongin B (1 to 104 residues)/Elongin C (17 to 112 residues) (unknown origin) expressed in Escherichia coli cells immobilized in SA sensor chip assessed as dissociation constant by SPR analysis. Background: Surface plasmon resonance follows binding to a sensor surface in real time, without labels.
T1 sequence (P40337 whole entry, looked up, the tested form may be a part): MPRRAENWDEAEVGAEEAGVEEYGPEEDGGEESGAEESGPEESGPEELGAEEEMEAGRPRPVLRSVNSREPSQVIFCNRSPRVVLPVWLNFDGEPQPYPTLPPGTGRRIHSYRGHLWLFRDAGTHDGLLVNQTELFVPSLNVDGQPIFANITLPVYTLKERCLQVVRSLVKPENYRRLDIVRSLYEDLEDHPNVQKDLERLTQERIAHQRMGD

The target in experiment [2] is Hypoxia-inducible factor 1-alpha (Homo sapiens) (UniProt Q16665). As to the kind of experiment: Stabilization of HIF-1alpha in HEK293 cells at 50 uM incubated for 2 hrs by Western blot analysis relative to VH298. It is filed as cell-based. For orientation: Immunoblotting shows a protein as a band on a membrane.
Hypoxia-inducible factor 1-alpha (Homo sapiens), sequence (Q16665 whole entry, looked up): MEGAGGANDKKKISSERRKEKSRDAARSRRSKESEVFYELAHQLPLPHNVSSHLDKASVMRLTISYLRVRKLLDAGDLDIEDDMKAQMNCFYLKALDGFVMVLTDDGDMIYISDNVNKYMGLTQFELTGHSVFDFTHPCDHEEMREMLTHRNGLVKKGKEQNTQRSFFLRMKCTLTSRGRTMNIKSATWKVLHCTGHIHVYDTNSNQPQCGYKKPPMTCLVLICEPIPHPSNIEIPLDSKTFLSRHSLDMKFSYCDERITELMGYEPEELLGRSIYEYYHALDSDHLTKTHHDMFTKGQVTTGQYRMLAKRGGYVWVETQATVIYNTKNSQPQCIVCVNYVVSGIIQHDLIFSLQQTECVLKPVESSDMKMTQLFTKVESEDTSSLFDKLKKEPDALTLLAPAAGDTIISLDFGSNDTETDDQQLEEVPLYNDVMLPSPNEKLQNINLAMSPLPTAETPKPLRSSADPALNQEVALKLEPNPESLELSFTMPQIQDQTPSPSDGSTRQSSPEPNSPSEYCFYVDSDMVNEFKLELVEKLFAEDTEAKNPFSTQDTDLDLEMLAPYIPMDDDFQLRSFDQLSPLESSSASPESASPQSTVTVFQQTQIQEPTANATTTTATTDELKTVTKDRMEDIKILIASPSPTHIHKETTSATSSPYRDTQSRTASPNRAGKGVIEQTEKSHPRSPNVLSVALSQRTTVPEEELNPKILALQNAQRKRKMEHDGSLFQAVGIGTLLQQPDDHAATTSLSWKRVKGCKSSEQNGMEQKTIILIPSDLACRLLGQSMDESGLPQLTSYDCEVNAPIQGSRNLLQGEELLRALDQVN
Experiment [3] has the same target. Briefly: Stabilization of hydroxylated HIF-1alpha in human HeLa cells at 50 uM incubated for 2 hrs by Western blot analysis relative to VH298. It is filed as cell-based.
Experiment [4] has the same target. Briefly: Stabilization of hydroxylated HIF-1alpha in HEK293 cells at 50 uM incubated for 2 hrs by Western blot analysis relative to VH298. It is filed as cell-based.
The target is the same in experiment [5]. As to the kind of experiment: Stabilization of HIF-1alpha in human HeLa cells at 50 uM incubated for 2 hrs by Western blot analysis relative to VH298. It is filed as cell-based.
In experiment [6] the target is Von Hippel-Lindau disease tumor suppressor/Elongin B/Elongin C (Homo sapiens) (UniProt P40337+Q15370+Q15369). Briefly: Binding affinity to biotinylated VHL/Elongin B/Elongin C (unknown origin) immobilized in SA sensor chip assessed as second-order on-rate constant for association (Kon) by SPR analysis. It is filed as protein-complex assay.
Von Hippel-Lindau disease tumor suppressor/Elongin B/Elongin C (Homo sapiens), sequence (P40337 whole entry, looked up): as the sequence (P40337 whole entry, looked up, the tested form may be a part) above
Von Hippel-Lindau disease tumor suppressor/Elongin B/Elongin C (Homo sapiens), sequence (Q15369 whole entry, looked up): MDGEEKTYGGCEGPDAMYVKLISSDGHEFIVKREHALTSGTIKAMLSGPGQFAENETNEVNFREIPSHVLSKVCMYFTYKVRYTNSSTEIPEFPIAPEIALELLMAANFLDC
Von Hippel-Lindau disease tumor suppressor/Elongin B/Elongin C (Homo sapiens), sequence (Q15370 whole entry, looked up): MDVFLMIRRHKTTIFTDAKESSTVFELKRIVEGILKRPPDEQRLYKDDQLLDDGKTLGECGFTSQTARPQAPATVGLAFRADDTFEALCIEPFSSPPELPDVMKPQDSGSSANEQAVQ
In experiment [7] the target is Hypoxia-inducible factor 1-alpha (Homo sapiens) (UniProt Q16665). Briefly: Induction of HIF-1alpha transcription activity in human HeLa cells at 150 uM incubated for 32 hrs by HRE-luciferase based assay. It is filed as cell-based.
Experiment [8] concerns HeLa. Briefly: Upregulation of HIF-1alpha level in human HeLa cells at 50 uM incubated for 1 hr by immunoblot analysis. It is filed as functional, cell-based.
Experiment [9] relates to HeLa. Briefly: Upregulation of hydroxylated HIF-1alpha level in human HeLa cells at 50 uM incubated for 1 hr by immunoblot analysis. It is filed as functional, cell-based.
Experiment [10] has as its target Hypoxia-inducible factor 1-alpha (Homo sapiens) (UniProt Q16665). Briefly: Induction of HIF-1alpha transcription activity in human U2OS cells at 150 uM incubated for 32 hrs by HRE-luciferase based assay. It is filed as cell-based.
In experiment [11] the target is T1, Von Hippel-Lindau disease tumor suppressor/Elongin B/Elongin C. As to the kind of experiment: Inhibition of VHL/Elongin B/Elongin C (unknown origin) using FAM-DEALA-Hyp-YIPD as substrate by fluorescence polarization assay. It is filed as protein-complex assay.
The target of experiment [12] is Hypoxia-inducible factor 1-alpha (Homo sapiens) (UniProt Q16665). As to the kind of experiment: Induction of HIF-1alpha transcription activity in human HeLa cells incubated for 32 hrs by HRE-luciferase based assay. It is filed as cell-based.
Experiment [13] shares this target. Briefly: Induction of HIF-1alpha transcription activity in human U2OS cells incubated for 32 hrs by HRE-luciferase based assay. It is filed as cell-based.
Experiment [14] shares this target. As to the kind of experiment: Induction of HIF-1alpha transcription activity in human HeLa cells assessed as increase in CA9 mRNA level at 50 uM incubated for 16 hrs by RT-qPCR analysis. It is filed as cell-based.
In experiment [15] the target is T1, Von Hippel-Lindau disease tumor suppressor/Elongin B/Elongin C. Briefly: Binding affinity to biotinylated VHL/Elongin B/Elongin C (unknown origin) immobilized in SA sensor chip assessed as dissociation constant by SPR analysis. It is filed as protein-complex assay.
The test system of experiment [16] is HeLa. As to the kind of experiment: Upregulation of hydroxylated HIF-1alpha level in human HeLa cells at 10 to 100 uM incubated for 1 hr by immunoblot analysis. It is filed as functional, cell-based. Particulars: dose 10-100 µM.
The test system of experiment [17] is HeLa. As to the kind of experiment: Upregulation of HIF-1alpha level in human HeLa cells at 10 to 100 uM incubated for 1 hr by immunoblot analysis. It is filed as functional, cell-based. Particulars: dose 10-100 µM.
Experiment [18] concerns the target T2, von Hippel-Lindau disease tumor suppressor (Homo sapiens, UniProt P40337). Briefly: Inhibition of NanoLuc-fused VHL (unknown origin) transfected in live HEK293 cells using NanoGlo substrate incubated for 30 mins by tracer based NanoBRET assay. It is filed as cell-based. (Bioluminescence resonance energy transfer reports proximity on the nanometre scale.)
For experiment [19], the target named is T2, von Hippel-Lindau disease tumor suppressor. Briefly: Inhibition of NanoLuc-fused VHL (unknown origin) transfected in permeabilized HEK293 cells using NanoGlo substrate incubated for 30 mins by tracer based NanoBRET assay. It is filed as cell-based.
Experiment [20] deals with T1, Von Hippel-Lindau disease tumor suppressor/Elongin B/Elongin C. As to the kind of experiment: Binding affinity to N-terminal His6-tagged VHL (54 to 213 residues)/Elongin B (1 to 104 residues)/Elongin C (17 to 112 residues) (unknown origin) expressed in Escherichia coli BL21(DE3) cells assessed as dissociation constant by ITC analysis.

The source made the active and inactive calls. The calls are words filed in the database; no cut-off is given here.

In general, Kd refers to the concentration at which binding is half-saturated. What is called IC50 is the concentration that inhibits the measured activity by half.

T2 sequence (P40337 whole entry, the tested form may be a part): as the sequence (P40337 whole entry, looked up, the tested form may be a part) above

`CC(=O)N[C@H](C(=O)N1C[C@H](O)C[C@H]1C(=O)NCc1ccc(-c2scnc2C)c(C(F)(F)F)c1)C(C)(C)C`: the Kd in experiment [1] is 2990 nM.

In the case of `Cc1ncsc1-c1ccc([C@H](C)NC(=O)[C@@H]2C[C@@H](O)CN2C(=O)[C@@H](NC(=O)C2(F)CC2)C(C)(C)C)cc1F`, the Activity amounted to 92% in experiment [2], 177% in experiment [3], 102% in experiment [4] and 120% in experiment [5]. Moreover, the K in experiment [6] was 1 10^6/M/s.

Take `Cc1ncsc1-c1ccc(CNC(=O)[C@@H]2C[C@H](O)CN2C(=O)[C@@H](NC(=O)C2(C#N)CC2)C(C)(C)C)cc1`: the outcome (in experiment [7]; in the experiment on HeLa [8]; in the experiment on HeLa [9]; in experiment [10]) was inactive.

Take `Cc1ncsc1-c1ccc(CNC(=O)[C@@H]2C[C@@H](O)CN2C(=O)Cc2cccc(N)c2C)cc1`: the IC50 in [11] turned out to be 900 nM.

For the compound `Cc1ncsc1-c1ccc(CNC(=O)[C@@H]2C[C@@H](O)CN2C(=O)[C@@H](NC(=O)C2(F)CC2)C(C)(C)C)cc1F`, the Activity in [2] was 89%; in [3] it was 108%; in experiment [4], 75%; in [5] it was 107%. Also, the K in [6] is 1 10^6/M/s.

Regarding `Cc1ncsc1-c1ccc([C@H](C)NC(=O)[C@@H]2C[C@@H](O)CN2C(=O)[C@@H](NC(=O)C2(C#N)CC2)C(C)(C)C)cc1F`, the Activity is 48% in experiment [2], 123% in [3], 52% in experiment [4] and 105% in experiment [5].

On to `Cc1ncsc1-c1ccc(CNC(=O)[C@@H]2C[C@@H](O)CN2C(=O)[C@@H](NC(=O)C2(C#N)CC2)C(C)(C)C)cc1F`, for which the Activity was 18% in experiment [2], 74% in experiment [3], 20% in [4] and 83% in experiment [5].

In the case of `Cc1cc(-c2scnc2C)ccc1[C@H](C)NC(=O)[C@@H]1C[C@@H](O)CN1C(=O)[C@@H](NC(=O)C1(C#N)CC1)C(C)(C)C`, the Activity in [2] is 90%; in experiment [3], 221%; in experiment [4], 110%; in experiment [5], 155%.

As to `Cc1ncsc1-c1ccc(CNC(=O)[C@@H]2C[C@@H](O)CN2C(=O)[C@@H](NC(=O)C2(C#N)CC2)C(C)(C)C)cc1`, the Activity result in experiment [12] and in experiment [13] was “Dose-Dependent Effect” throughout. The result in experiment [14] was Active.

With `Cc1cc(-c2scnc2C)c(F)cc1CNC(=O)[C@@H]1C[C@@H](O)CN1C(=O)[C@@H](NC(=O)C1(F)CC1)C(C)(C)C`, the Activity turned out to be 110% in [2], 153% in [3], 76% in experiment [4] and 124% in [5]. In experiment [15], the dissociation constant Kd amounted to 72 nM. Moreover, the K in experiment [6] was 1 10^6/M/s.

As for `COc1cc(-c2scnc2C)c(F)cc1[C@H](C)NC(=O)[C@@H]1C[C@@H](O)CN1C(=O)[C@@H](NC(=O)C1(F)CC1)C(C)(C)C`, the Activity in [2] was 145%; in [3], 179%; in experiment [4] it was 137%; in [12], “Dose-Dependent Effect”; in experiment [5], 128%; in [13], “Dose-Dependent Effect”. Moreover, the result (with HeLa [16]; with HeLa [17]; in [14]) was Active.

Regarding `CC(=O)N[C@H](C(=O)N1C[C@H](O)C[C@H]1C(=O)NCc1ccc(-c2scnc2C)cc1C(F)(F)F)C(C)(C)C`, the Kd in experiment [1] was determined as 268 nM.

For the compound `Cc1cc(-c2scnc2C)ccc1CNC(=O)[C@@H]1C[C@@H](O)CN1C(=O)[C@@H](NC(=O)C1(C#N)CC1)C(C)(C)C`, the Activity in [2] turned out to be 78%; in [3] it was 88%; in [4] it was 66%; in experiment [5], 89%.

For the compound `Cc1cc(-c2scnc2C)ccc1[C@H](C)NC(=O)[C@@H]1C[C@@H](O)CN1C(=O)[C@@H](NC(=O)C1(F)CC1)C(C)(C)C`, the Activity is 224% in experiment [2]; 263% in experiment [3]; 208% in experiment [4]; “Dose-Dependent Effect” in experiment [12]; 182% in [5]; “Dose-Dependent Effect” in experiment [13]. Further, the IC50 in [18] turned out to be 164 nM; in experiment [19] it was 122 nM. In addition, the result (in the experiment on HeLa [16]; in the experiment with HeLa [17]; in experiment [14]) was Active. In addition, the K in experiment [6] was 1 10^6/M/s.

Regarding `CC(=O)N[C@H](C(=O)N1C[C@H](O)[C@H](F)[C@H]1C(=O)NCc1ccc(-c2scnc2C)cc1)C(C)(C)C`, the Kd in experiment [20] is 244 nM.

As to `Cc1cc(-c2scnc2C)ccc1CNC(=O)[C@@H]1C[C@@H](O)CN1C(=O)[C@@H](NC(=O)C1(F)CC1)C(C)(C)C`, the Activity in [2] was determined as 78%; in experiment [3], 120%; in experiment [4] it was 69%; in experiment [5], 116%. Also, the K in experiment [6] is 1 10^6/M/s.

On to `COc1cc(-c2scnc2C)c(F)cc1CNC(=O)[C@@H]1C[C@@H](O)CN1C(=O)[C@@H](NC(=O)C1(F)CC1)C(C)(C)C`, for which the Activity in experiment [2] turned out to be 73%; in experiment [3], 98%; in experiment [4] it was 68%; in experiment [5], 95%. Besides, the K in experiment [6] is 1 10^6/M/s.

With `Cc1cc(-c2scnc2C)c(F)cc1[C@H](C)NC(=O)[C@@H]1C[C@@H](O)CN1C(=O)[C@@H](NC(=O)C1(F)CC1)C(C)(C)C`, the Activity in [2] worked out at 152%; in experiment [3], 217%; in experiment [4], 137%; in experiment [5], 155%. For the same compound, the midpoint of inhibition in experiment [18], the IC50, lay at 366 nM. The K in [6] was 1 10^6/M/s.
